System: aggrecanase
Experiment: Western blot of aggrecanase-generated aggrecan neoepitopes (BC3, AGEG antibodies) in culture medium of human OA cartilage explants
Type: cell-based
Method: FIG. 4A is a Western blot showing aggrecanase-generated aggrecan neoepitopes using BC-3 antibody, which recognizes the N-terminus on aggrecanase-generated aggrecan catabolites. Cartilage explants from two human donors with end stage OA (after joint replacement surgery) were used. Donor #259 is a patient, and donor #261 is a patient. Lanes 1, 5: vehicle. Lanes 2, 6: TO901317 (2 μM). Lanes 3, 7: IL-1β+oncostatin M (OSM) (10 ng/ml each). Lanes 4, 8: IL-1β+OSM+TO901317. FIG. 4B is a Western blot showing aggrecanase-generated aggrecan neoepitopes using AGEG antibody, which recognizes a different epitope on aggrecanase-generated aggrecan catabolites. Lanes 1, 5: vehicle. Lanes 2, 6: TO901317 (2 μM). Lanes 3, 7: IL-1β+OSM (10 ng/ml each). Lanes 4, 8: IL-1β+OSM+TO901317. Fresh cartilage from human OA donors was cut into pieces (˜10 mg/piece, ˜2×2×2 mm). The cartilage explants were randomized into 24 well plates (˜250 mg wet weight/well). Three wells of explants were included for each treatment group. The explants were cultured in 1 ml DMEM/F-12 with 10% FBS for 3 days, then the complete medium was replaced with serum-free medium. Twelve hours later, the medium was removed and fresh serum-free medium (1 ml) was added, followed by LXR agonist T0901317 treatment (2 μM). IL1β/Oncostatin M (10 ng/ml each) were added 8 hours later. The explants were then cultured in the presence or absence of LXR agonist T0901317 and IL1β/Oncostatin M for additional 20 hours. 180 μl of pooled culture medium from each treatment group was deglycosylated with chondroitinase ABC, keratanase, keratanase II in the presence of 50 mM EDTA at 37° C. for 3 hrs. The samples were then concentrated and separated in a 4-12% SDS-PAGE gel. Western analysis was performed using either mouse BC3 neoepitope antibody (1:1500), or rabbit anti-AGEG antibody (1:1000) as the primary antibody, and anti-mouse or anti-rabbit IgG antibody conjugated with […] (1:5000) as the secondary antibody. […] Treatment with T0901317 blocked the induction of BC3 and AEEG release by cytokines. In the experiment using donor #261, BC3- and AEGE-containing aggrecan fragments were released into the culture medium from untreated cartilage explants.

O=S(=O)(c1ccccc1)N(CC(F)(F)F)c1ccc(C(O)(C(F)(F)F)C(F)(F)F)cc1 [Formula T0901317, N-(2,2,2-trifluoroethyl)-N-{4-[2,2,2-trifluoro-1-hydroxy-1-(trifluoromethyl)ethyl]phenyl}benzene sulfonamide]
cytokine-induced release of BC3 containing aggrecan fragments into the culture medium (donor #259, 2 μM, IL1β/Oncostatin M 10 ng/ml each, FIG. 4A): blocked
cytokine-induced release of AGEG containing aggrecan fragments into the culture medium (donor #259, 2 μM, IL1β/Oncostatin M 10 ng/ml each, FIG. 4B): blocked
cytokine-induced release of AGEG-containing fragment from the explants (donor #261, 2 μM, IL1β/Oncostatin M 10 ng/ml each, FIG. 4B): it was blocked
amount of BC3-containing aggrecan fragments released into the culture medium without cytokines (donor #261, 2 μM, no cytokine, FIG. 4A): reduced the amount of these fragments
amount of AGEG-containing aggrecan fragments released into the culture medium without cytokines (donor #261, 2 μM, no cytokine, FIG. 4B): reduced the amount of these fragments

Source: US20090012053A1, “Use of LXR agonists for the treatment of osteoarthritis” (Wyeth, priority 2006, published 2009)
